Drawing on BindingDB's records for doi:10.1016/j.bioorg.2015.08.001 (Universiti Teknologi Mara (Uitm), 2015), this text covers IC50 for 15 compounds.

Sequence of Carbonic anhydrase 2 (P00921 whole entry): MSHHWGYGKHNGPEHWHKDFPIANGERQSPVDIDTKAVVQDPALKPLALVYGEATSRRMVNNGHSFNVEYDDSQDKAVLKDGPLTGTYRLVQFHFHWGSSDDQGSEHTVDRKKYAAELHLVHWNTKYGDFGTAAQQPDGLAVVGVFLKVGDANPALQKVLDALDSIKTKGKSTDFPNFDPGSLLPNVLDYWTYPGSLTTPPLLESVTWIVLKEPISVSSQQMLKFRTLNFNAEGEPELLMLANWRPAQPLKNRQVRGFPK

The assay addresses Carbonic anhydrase 2 (Bos taurus, UniProt P00921). The assay can be described thus: Carbonic Anhydrase (CA) II Inhibition Assay. To be noted: pH 7.2. As to the method: This was assay performed using buffer containing Tris and HEPES at the pH of 7.2-7.9 and a total concentration of 20 mM. 96-well plates were filled with 140 µL of Tris-HEPES solution, 20 µL of bovine erythrocyte carbonic anhydrase II solution (0.1-0.2 mg/2000 mL), and 20 µL of 0.7 mM para-nitrophenyl acetate (diluted in ethanol). Test compounds were incubated at 25-28 °C for 15 min prior to addition of para-nitrophenyl acetate, which starts the reaction. The reaction was allowed to take place for 30 min at 25-28 °C. All compounds tested in triplicate at different concentration. Amount of product that forms during the reaction monitored at 400 nm after 30 min.
Consider `S=C(Nc1ccc(C(c2c[nH]c3ccc(Cl)cc23)c2c[nH]c3ccc(Cl)cc23)cc1)Nc1cc(Cl)ccc1Cl` [Name not given], for which the half-inhibitory concentration (IC50) is 139 µM.
Regarding `S=C(Nc1ccc(C(c2c[nH]c3ccc(Cl)cc23)c2c[nH]c3ccc(Cl)cc23)cc1)Nc1cccc(Cl)c1` [Name not given], half-maximal inhibition (IC50) required 54.4 µM. Compared with the last compound, the IC50 is about 2.6-fold lower.
In turn, `O=[N+]([O-])c1ccc(NC(=S)Nc2cccc(C(c3c[nH]c4ccccc34)c3c[nH]c4ccccc34)c2)cc1` [1-(4-Nitrophenyl)-3-(3-(di(1H-indol-3-yl)methyl)phenyl)thiourea (4d)] showed an IC50 of 32.9 µM.
For `O=[N+]([O-])c1ccc(NC(=S)Nc2ccc(C(c3c[nH]c4ccccc34)c3c[nH]c4ccccc34)cc2)cc1` [Name not given] the value was 45.9 µM; for `CCOC(=O)NC(=S)Nc1ccc(C(c2c[nH]c3ccc(Cl)cc23)c2c[nH]c3ccc(Cl)cc23)cc1` [Name not given], 137 µM; for `S=C(Nc1ccc(C(c2c[nH]c3ccc(Br)cc23)c2c[nH]c3ccc(Br)cc23)cc1)Nc1cccc(Cl)c1` [Name not given], 42.9 µM.
In turn, `O=[N+]([O-])c1ccc(NC(=S)Nc2ccc(C(c3c[nH]c4ccc(Br)cc34)c3c[nH]c4ccc(Br)cc34)cc2)cc1` [Name not given] displayed an IC50 of 32.3 µM.
`CCOC(=O)NC(=S)Nc1ccc(C(c2c[nH]c3ccc(Br)cc23)c2c[nH]c3ccc(Br)cc23)cc1` [Name not given]: half-maximal inhibition (IC50) was put at 70.4 µM.
To `S=C(Nc1ccc(C(c2c[nH]c3ccccc23)c2c[nH]c3ccccc23)cc1)Nc1cccc(Br)c1` belongs 131 µM; to `S=C(Nc1ccc(C(c2c[nH]c3ccccc23)c2c[nH]c3ccccc23)cc1)Nc1cccc(Cl)c1` [Name not given], 112 µM.
In the case of `O=[N+]([O-])c1ccc(NC(=S)Nc2ccc(C(c3c[nH]c4ccc(Cl)cc34)c3c[nH]c4ccc(Cl)cc34)cc2)cc1` [Name not given], the IC50 was 39.7 µM.
Turning to `S=C(Nc1ccc(C(c2c[nH]c3ccccc23)c2c[nH]c3ccccc23)cc1)Nc1cc(Cl)ccc1Cl` [Name not given], the IC50 turned out to be 68.3 µM.
To `Cc1cccc2c(C(c3ccc(NC(=S)Nc4ccc([N+](=O)[O-])cc4)cc3)c3c[nH]c4c(C)cccc34)c[nH]c12` [1-(4-(Bis(7-methyl-1H-indol-3-yl)methyl)phenyl)-3-(4-nitrophenyl)thiourea (3u)] belongs 44.1 µM; to `S=C(Nc1ccc(C(c2c[nH]c3ccc(Br)cc23)c2c[nH]c3ccc(Br)cc23)cc1)Nc1cccc(Br)c1` [Name not given], 30.1 µM; to `S=C(Nc1ccc(C(c2c[nH]c3ccc(Br)cc23)c2c[nH]c3ccc(Br)cc23)cc1)Nc1cc(Cl)ccc1Cl` [Name not given], 33 µM.
